Source: article PMC6222382, “A Potent Tyrosinase Inhibitor, (E)-3-(2,4-Dihydroxyphenyl)-1-(thiophen-2-yl)prop-2-en-1-one, with Anti-Melanogenesis Properties in α-MSH and IBMX-Induced B16F10 Melanoma Cells” (Molecules : A Journal of Synthetic Chemistry and Natural …, 2018)
Where two headings read alike, the source gives them in different places.

Key:
mushroom tyrosinase [1] = assay: Mushroom tyrosinase inhibitory assay (L-tyrosine or L-DOPA as substrate); type: biochemical; details: for IC50: mean ± SEM of triplicate experiments; for tyrosinase inhibitory activity toward L-DOPA (in words): at any of the tested concentrations
Experimental: The reaction mixtures were keep warm at 37 °C for 20 min. The absorbance of the mixture at 492 nm was measured using a microplate reader. The tyrosinase inhibitory activity (%) was calculated as (1 − Abssample/Abscontrol) × 100%.

[2] = test system: intracellular tyrosinase in B16F10 melanoma cells; assay: Cellular tyrosinase activity assay in α-MSH and IBMX-induced B16F10 melanoma cells (L-DOPA oxidation); type: cell-based, murine; details: α-MSH (5 μM) and IBMX (200 μM), 48 h, α-MSH and IBMX alone 310.39%
Experimental: (§1) Murine melanoma B16F10 cells were purchased from the Korean Cell Line Bank (Seoul, Korea). The cells were cultured in DMEM containing 10% FBS and 1% streptomycin, and then incubated at 37 °C with 5% CO2. The melanoma cells were plated at 95% confluency for all the experiments.
Intracellular tyrosinase inhibitory activity assay was achieved by measuring the rate of oxidation of L-DOPA [44]. Cells at a density of 1 × 10^5 cells/well were plated in 6-well plates (Nunc, Denmark) and incubated overnight. […] The cells were washed with PBS and lysed in a solution containing 100 µL of 50 mM phosphate buffer (pH 6.5), 0.1 mM phenylmethylsulfonylfluoride (PMSF), and 1% Triton X-100. The cells lysates were employed in a deep freezer (−80 °C) for 1 h. After defrosting the cell lysates, the cellular extracts were purified by centrifugation at 12,000 rpm for 30 min at 4 °C. A total of 80 µL of supernatant and 20 µL of L-DOPA (2 mg/mL) were added to a 96-well plate, and the absorbance at a wavelength of 492 nm was measured every 10 min during 1 h using an ELISA plate reader (TECAN, Salzburg, Austria). Total protein content was determined using BCA protein assay reagent (Thermo Scientific, Rockford, IL, USA).

B16F10 melanoma cells [3] = assay: Melanin contents in α-MSH and IBMX-induced B16F10 melanoma cells; type: cell-based, murine; details: α-MSH (5 μM) and IBMX (200 μM), 48 h, α-MSH and IBMX alone 171.30%
Experimental: as §1
Cellular melanin content was determined as described previously. Cells were seeded in six-well culture plates (Nunc, Denmark) at 2 × 10^5 cells/well for 24 h. […] Cells were washed twice with PBS. After centrifugation, cell pellets were disrupted in 100 μL of 1N NaOH, and incubated at 60 °C for 1 h and mixed to solubilize the melanin. Absorbance at 405 nm was compared with a standard curve for synthetic melanin (TECAN, Salzburg, Austria).

mushroom tyrosinase [4] = assay: Enzyme kinetic analysis in mushroom tyrosinase inhibition (Lineweaver-Burk and Dixon plots); type: biochemical; details: for Ki: Dixon plot; for Inhibition type: Lineweaver-Burk plot
Experimental: In order to estimate the kinetic mechanism, two kinetic methods using Lineweaver-Burk and Dixon plots were used. Using Lineweaver-Burk double reciprocal plots [a plot of 1/enzyme velocity (1/V) vs. 1/substrate concentration (1/[S])], the type of inhibition was determined using various concentrations of L-tyrosine (0.5, 1 and 2 mM) and L-DOPA (0.5, 1, and 2 mM), as substrates, in the absence and presence of various concentrations of 1c (3.2–80 nM; for L-tyrosine, 0.4–10 μM; for L-DOPA). […] The concentrations of 1c were as follows: 3.2–80 nM; for L-tyrosine, 0.4–10 μM; for L-DOPA. The enzymatic procedures comprised of the formerly described tyrosinase test methods. The inhibition constant (Ki) was resolute using Dixon plots.

B16F10 melanoma cells [5] = assay: Cell viability, EZ-Cytox assay; type: cell-based, murine; details: concentrations up to 100 μM, 48 h
Experimental: as §1
Cell viability was assessed with the EZ-Cytox assay kit (Daeillab Service, Seoul, Korea) as previously described. In brief, B16F10 cells were seeded in 96-well plates (Corning, NY, USA) at a density of 1 × 10^4 cells/well for 24 h. The cells were fed fresh, serum-free DMEM that contained different concentrations (up to 100 μM) of 1c, and incubated for 24 h or 48 h. Then, 10 μL EZ-Cytox solution was added to each well and the cells were incubated for 2–4 h. The absorbance of cells in the absence of treatment was regarded as 100% cell survival. […] Thus, CC50 value of 1c were calculated by regression analysis.

[6] = substrate L-DOPA, read-out: IC50 (μM), L-DOPA as substrate (diphenolase / dopa oxidase)
[7] = substrate L-tyrosine, read-out: IC50 (μM), L-tyrosine as substrate (monophenolase / tyrosine hydroxylase)

Row | Compound | IC50 (mushroom tyrosinase [1]; [6]) [µM] | IC50 (mushroom tyrosinase [1]; [7]) [µM] | melting point [°C] | tyrosinase inhibitory activity toward L-DOPA (in words) (mushroom tyrosinase [1]; substrate L-DOPA) | further results
1 | O=C(/C=C/c1ccc(O)cc1)c1cccs1 [1a, (E)-3-(4-Hydroxyphenyl)-1-(thiophen-2-yl)prop-2-en-1-one] | 60.1 ± 7.85 | 46.2 ± 0.55 | – | – | –
2 | O=C(/C=C/c1ccc(O)c(O)c1)c1cccs1 [1b, (E)-3-(3,4-Dihydroxyphenyl)-1-(thiophen-2-yl)prop-2-en-1-one] | 103 ± 8.47 | 75.7 ± 2.46 | 182.5 to 185.7 | – | –
3 | O=C(/C=C/c1ccc(O)cc1O)c1cccs1 [1c, (E)-3-(2,4-Dihydroxyphenyl)-1-(thiophen-2-yl)prop-2-en-1-one] | 0.93 ± 0.22 | – | – | – | intracellular tyrosinase activity ([2]; 0.04 μM): 225.78%; intracellular tyrosinase activity ([2]; 0.2 μM): 157.79%; intracellular tyrosinase activity ([2]; 1 μM): 132.71%; melanin contents (B16F10 melanoma cells [3]; 0.04 μM): 107.29%; melanin contents (B16F10 melanoma cells [3]; 0.2 μM): 98.15%; melanin contents (B16F10 melanoma cells [3]; 1 μM): 88.09%; Ki (mushroom tyrosinase [4]; substrate L-DOPA): 1.76 µM; Inhibition type (mushroom tyrosinase [4]; substrate L-DOPA): competitive inhibition; Ki (mushroom tyrosinase [4]; substrate L-tyrosine): 0.00501 µM; Inhibition type (mushroom tyrosinase [4]; substrate L-tyrosine): competitive inhibition; cytotoxicity (cell viability) (B16F10 melanoma cells [5]): did not show any cytotoxicity
4 | COc1cc(/C=C/C(=O)c2cccs2)ccc1O [1d, (E)-3-(4-Hydroxy-3-methoxyphenyl)-1-(thiophen-2-yl)prop-2-en-1-one] | > 200 | 98.8 ± 2.11 | 132.8 to 135.2 | did not inhibit tyrosinase activity | –
5 | COc1ccc(/C=C/C(=O)c2cccs2)cc1O [1e, (E)-3-(3-Hydroxy-4-methoxyphenyl)-1-(thiophen-2-yl)prop-2-en-1-one] | 28.7 ± 1.98 | 17.4 ± 1.81 | – | – | –
6 | COc1cc(/C=C/C(=O)c2cccs2)cc(OC)c1O [1f, (E)-3-(4-Hydroxy-3,5-dimethoxyphenyl)-1-(thiophen-2-yl)prop-2-en-1-one] | > 200 | 77.9 ± 8.74 | 143.6 to 147.3 | did not inhibit tyrosinase activity | –
7 | O=C(/C=C/c1ccc(O)c(Br)c1)c1cccs1 [1g, (E)-3-(3-Bromo-4-hydroxyphenyl)-1-(thiophen-2-yl)prop-2-en-1-one] | 112 ± 14.3 | – | 195.2 to 199.6 | – | tyrosinase inhibitory activity toward L-tyrosine (in words) (mushroom tyrosinase [1]; substrate L-tyrosine): inactive
8 | O=C(/C=C/c1cc(Br)c(O)c(Br)c1)c1cccs1 [1h, (E)-3-(3,5-Dibromo-4-hydroxyphenyl)-1-(thiophen-2-yl)prop-2-en-1-one] | > 200 | – | 269.3 to 272 | did not inhibit tyrosinase activity | tyrosinase inhibitory activity toward L-tyrosine (in words) (mushroom tyrosinase [1]; substrate L-tyrosine): inactive
9 | O=c1cc(CO)occ1O [Kojic acid, kojic acid, reference compound] | – | – | – | – | intracellular tyrosinase activity ([2]; 10 μM): 225.54%; melanin contents (B16F10 melanoma cells [3]; 10 μM): 118.19%
